Results reported in patent US4939137A, “Ring-fused thienopyrimidinedione derivatives” (Ortho Pharmaceutical Corporation, priority 1989, dated 1990).
pIC50: −log10 of the molar value.

Columns and labels:
[1] = tested on: spontaneously hypertensive rats (SHR); assay: Antihypertensive Activity: Spontaneously Hypertensive Rat (SHR test); format: in vivo, rat (male spontaneously hypertensive); conditions: Rattus norvegicus, p.o. or i.v., read-out: SHR TEST: change in blood pressure (delta % of control); for change in vivo at 5 mg/kg: dose 5 mpk
Description: Mean arterial pressure and heart rate were monitored from directly cannulated animals. Compounds were administered p.o. or i.v. and blood pressure was recorded for various time intervals post dosing.
Blood pressure changes (expressed as change in control pressure and reported as delta % of control for each animal) were analyzed statistically using a one way analysis of variance with a Dunnett's test. P values less than 0.05 were considered significant.

[2] = tested on: alpha adrenergic receptor; assay: Alpha-1 Adrenergic Blockage: Inhibition of Phenylephrine-Induced Increases in Blood Pressure in the Anesthetized Dog; format: in vivo; conditions: dose 0.03 mpk, i.v., phenylephrine 10 μg/kg
Text: Dogs were anesthetized and bilaterally vagotomized. A femoral artery and vein were cannulated for detection of diastolic blood pressure and drug administration, respectively. Percent inhibition of alpha adrenergic receptor antagonism was quantified by determining dose-response (increase in diastolic pressure) relationship of phenylephrine before and after various doses of the antagonist.

[3] = target: alpha-1 adrenergic receptor; assay: Brain Alpha-1 Radioreceptor Assay (3H-prazosin); conditions: guinea pig brain membranes, 30 minutes, 30° C., read-out: RECEPTOR BINDING ALPHA-1 (IC50)
Description: Membrane fragments were prepared from the brains of mature female guinea pigs after removal of the corpus striata. The alpha-1 adrenergic receptor sites were labeled with ^3 H-prazosin. Membrane fragments, ^3 H-prazosin and an unlabeled test compound were incubated for 30 minutes at 30° C. Compound bound to the receptor site was separated from the remaining unbound radioligand by vacuum filtration. Specific binding was determined by the difference between total counts bound and counts bound in the presence of 10-^5 M phentolamine.

5HT2 receptor = target: T1, 5HT2 receptor (Rattus norvegicus, UniProt P14842); assay: Brain Serotonin 5HT2 Radioreceptor Assay (3H-ketanserin); format: binding; conditions: rat frontal cortex membranes, 15 minutes, 37° C., read-out: RECEPTOR BINDING 5HT-2 (IC50)
T1 construct: Membrane fragments were prepared from the frontal cortex dissected from brains obtained from female rats; from tissue; host or cells: frontal cortex, female rats
Description: (§1) Membrane fragments were prepared from the frontal cortex dissected from brains obtained from female rats (~150 g). The 5HT2 sites were labeled with ^3 H-ketanserin. Membrane fragments, ^3 H-ketanserin and an unlabeled test compound were incubated for 15 minutes at 37° C. Compound bound to the receptor site was separated from the remaining unbound compound by vacuum filtration.
The ability of a nonlabeled compound to compete with ^3 H-ketanserin for binding sites was a measure of the compound's affinity for the 5HT2 receptor. Specific binding was determined by the difference between total counts bound and counts bound in the presence of 10^-6 M methysergide.
Data are presented as the IC50, the concentration of nonlabeled compound required to displace 50% of the ^3 H-ketanserin specifically bound to 5HT2 binding sites.

5HT1A receptor = target: T2, 5HT1A receptor (Rattus norvegicus, UniProt P19327); assay: Brain Serotonin 5HT1A Radioreceptor Assay (3H-80H-DPAT); format: binding; conditions: rat frontal cortex membranes, 10 minutes, 37° C., read-out: RECEPTOR BINDING 5HT-1A (IC50)
T2 construct: Membrane fragments were prepared from the frontal cortex dissected from brains obtained from female rats; from tissue; host or cells: frontal cortex, female rats
T2 sequence (P19327 1-422): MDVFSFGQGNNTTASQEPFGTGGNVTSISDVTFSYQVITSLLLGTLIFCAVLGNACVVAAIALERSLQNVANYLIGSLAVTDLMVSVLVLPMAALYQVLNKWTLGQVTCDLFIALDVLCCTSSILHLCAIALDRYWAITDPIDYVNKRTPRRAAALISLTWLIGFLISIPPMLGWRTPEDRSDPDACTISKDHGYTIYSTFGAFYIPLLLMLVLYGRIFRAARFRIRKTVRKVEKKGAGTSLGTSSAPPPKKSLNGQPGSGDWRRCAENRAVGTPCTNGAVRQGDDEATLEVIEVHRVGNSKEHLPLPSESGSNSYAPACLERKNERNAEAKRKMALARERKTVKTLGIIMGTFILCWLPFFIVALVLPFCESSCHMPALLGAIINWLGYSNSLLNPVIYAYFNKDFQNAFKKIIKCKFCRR
Description: as §1, with “The 5HT1A” for “The 5HT2”, “^3 H-80H-dipropylaminotetralin (^3 H-80H-DPAT).” for “^3 H-ketanserin.”, “^3 H-80H-DPAT” for “^3 H-ketanserin”, “for 10” for “for 15”, “C. The tubes were then placed in an ice bath for an additional 10 minutes.” for “C.”
The ability of a nonlabeled compound to compete with ^3 H-80H-DPAT for binding sites was a measure of the compound's affinity for the 5HT1A receptor. Specific binding was determined by the difference between total counts bound and counts bound in the presence of 10^-5 M serotonin.
Data are presented at the IC50, the concentration of nonlabeled compound required to displace 50% of the ^3 H-80H-DPAT specifically bound to 5HT1A binding sites.

T1 sequence (P14842 whole entry, the tested form may be a part): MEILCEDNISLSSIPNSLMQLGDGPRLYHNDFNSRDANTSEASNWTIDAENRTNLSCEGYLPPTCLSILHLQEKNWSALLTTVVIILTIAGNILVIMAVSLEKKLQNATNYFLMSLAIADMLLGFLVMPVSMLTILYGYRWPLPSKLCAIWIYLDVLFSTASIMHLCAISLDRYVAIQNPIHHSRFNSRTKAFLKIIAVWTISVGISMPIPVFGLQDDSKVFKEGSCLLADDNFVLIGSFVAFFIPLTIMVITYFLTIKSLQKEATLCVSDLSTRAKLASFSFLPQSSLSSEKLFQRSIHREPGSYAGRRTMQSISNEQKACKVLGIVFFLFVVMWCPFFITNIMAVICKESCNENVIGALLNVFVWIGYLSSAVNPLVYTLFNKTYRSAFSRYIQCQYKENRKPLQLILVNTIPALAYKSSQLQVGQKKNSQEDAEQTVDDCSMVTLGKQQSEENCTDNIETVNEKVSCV

## Cc1ccccc1N1CCN(CCn2c(=O)c3csc4c3n(c2=O)CCC4=O)CC1 [Example 2, 3,4,5,7,8,9-Hexahydro-4-[2-[4-(2-methylphenyl)piperazin-1-yl]ethyl]thieno[4,3,2-de]pyrido[1,2-c]pyrimidine-3,5,9-trione]
[1]
  change in vivo at 5 mg/kg: -33%
[2]
  % INHIB OF PHENYLEPHRINE RESPONSE: 83%

## O=C1CCn2c(=O)n(CCN3CCN(c4ccccc4Cl)CC3)c(=O)c3csc1c32 [Example 3, 4-[2-[4-(2-Chlorophenyl)piperazin-1-yl]ethyl]3,4,5,7,8,9-hexahydrothieno[4,3,2-de]pyrido[1,2-c]pyrimidine-3,5,9-trione]
[2]
  % INHIB OF PHENYLEPHRINE RESPONSE: 55%

## O=C1CCn2c(=O)n(CCN3CCN(c4ccccc4)CC3)c(=O)c3csc1c32 [Example 4, 3,4,5,7,8,9-Hexahydro-4-[2-(4-phenylpiperazin-1-yl)ethyl]thieno[4,3,2-de]pyrido[1,2-c]pyrimidine-3,5,9-trione]
[2]
  % INHIB OF PHENYLEPHRINE RESPONSE: 88%

## COc1cccc(N2CCN(CCn3c(=O)c4csc5c4n(c3=O)CCC5=O)CC2)c1 [Example 5, 3,4,5,7,8,9-Hexahydro-4-[2-[4-(3-methoxyphenyl)piperazin-1-yl]ethyl]thieno[4,3,2-de]pyrido[1,2-c]pyrimidine-3,5,9-trione]
[2]
  % INHIB OF PHENYLEPHRINE RESPONSE: 41%

## COc1ccc(N2CCN(CCn3c(=O)c4csc5c4n(c3=O)CCC5=O)CC2)cc1 [Example 8, 3,4,5,7,8,9-Hexahydro-4-[2-[4-(4-methoxyphenyl)piperazin-1-yl]ethyl]thieno[4,3,2-de]pyrido[1,2-c]pyrimidine-3,5,9-trione]
[2]
  % INHIB OF PHENYLEPHRINE RESPONSE: 40%

## O=C1CCn2c(=O)n(CCN3CCN(c4ccc(F)cc4)CC3)c(=O)c3csc1c32 [Example 9, 3,4,5,7,8,9-Hexahydro-4-[2-[4-(4-fluorophenyl)piperazin-1-yl]ethyl]thieno[4,3,2-de]pyrido[1,2-c]pyrimidine-3,5,9-trione]
[1]
  change in vivo at 5 mg/kg: -21.5%

## COc1ccccc1N1CCN(CCn2c(=O)c3c(C)sc4c3n(c2=O)CCC4=O)CC1 [Example 13, 3,4,5,7,8,9-Hexahydro-2-methyl-4-[2-[4-(2-methoxyphenyl)piperazin-1-yl]ethyl]thieno[4,3,2-de]pyrido[1,2-c]pyrimidine-3,5,9-trione]
[2]
  % INHIB OF PHENYLEPHRINE RESPONSE: 88%

## COc1ccccc1N1CCN(CCn2c(=O)c3scc4c3n(c2=O)CCC4=O)CC1 [Example 14, 7.8-Dihydro-4-[2-[4-(2-methoxyphenyl)-piperazin-1-yl]ethyl]thieno[2,3,4-de]pyrido[1,2-c]pyrimidine-3,5,9-trione]
[1]
  change in vivo at 5 mg/kg: -30%
[3]
  pIC50: 8.22
5HT2 receptor
  pIC50: 5.82
5HT1A receptor
  pIC50: 7.18

## COc1ccccc1N1CCN(CCn2c(=O)c3csc4c3n(c2=O)CCCC4=O)CC1 [Example 15, 4,7,8,9-Tetrahydro-4-[2-[4-(2-methoxyphenyl)-piperazin-1-yl]ethyl]thieno[4,3,2-de]pyrimido[3,4-a]azepine-3,5,10-trione]
[1]
  change in vivo at 5 mg/kg: -29.8%

## COc1ccccc1N1CCN(CCn2c(=O)c3csc4c3n(c2=O)CCC4O)CC1 (centres unmarked) [Example 21, 3,4,5,7,8,9-Hexahydro-9-hydroxy-4-[2-[4-(2-methoxyphenyl)piperazin-1-yl]ethyl]thieno[4,3,2-de]pyrido[1,2-c]pyrimidine-3,5-dione]
[1]
  change in vivo at 5 mg/kg: -24.7%
[2]
  % INHIB OF PHENYLEPHRINE RESPONSE: 96%

## COc1ccccc1N1CCN(CCn2c(=O)c3c(C)sc4c3n(c2=O)CCC4O)CC1 (centres unmarked) [Example 23, 3,4,5,7,8,9-Hexahydro-9-hydroxy-4-[2-[4-(2-methoxyphenyl)piperazin-1-yl]ethyl]-2-methyl-thieno[4,3,2-de]pyrido[1,2-c]pyrimidine-3,5-dione]
[1]
  change in vivo at 5 mg/kg: -27.4%

## CON=C1CCn2c(=O)n(CCN3CCN(c4ccccc4OC)CC3)c(=O)c3csc1c32 [Example 26, 3,4,5,7,8,9-Hexahydro-9-methoxyimino-4-[2-[4-(2-methoxyphenyl)piperazin-1-yl]ethyl]-thieno[4,3,2-de]pyrido[1,2-c]pyrimidine-3,5-dione]
[3]
  pIC50: 7.40
5HT2 receptor
  pIC50: 5.70
5HT1A receptor
  pIC50: 9.14
[2]
  % INHIB OF PHENYLEPHRINE RESPONSE: 72%

## COc1ccccc1N1CCN(CCn2c(=O)c3csc4c3n(c2=O)CCC4OC(C)=O)CC1 (centres unmarked) [Example 30, 9-Acetyloxy-3,4,5,7,8,9-hexahydro-4-[2-[4-(2-methoxyphenyl)piperazin-1-yl]ethyl]thieno[4,3,2-de]pyrido[1,2-c]pyrimidine-3,5-dione]
[1]
  change in vivo at 5 mg/kg: -33.2%
[2]
  % INHIB OF PHENYLEPHRINE RESPONSE: 100%

## CCCC(=O)OC1CCn2c(=O)n(CCN3CCN(c4ccccc4OC)CC3)c(=O)c3csc1c32 (centres unmarked) [Example 31]
[2]
  % INHIB OF PHENYLEPHRINE RESPONSE: 100%

## CCCCCC(=O)OC1CCn2c(=O)n(CCN3CCN(c4ccccc4OC)CC3)c(=O)c3csc1c32 (centres unmarked) [Example 32, 3,4,5,7,8,9-Hexahydro-4-[2-[4-(2-methoxyphenyl)piperazin-1-yl]ethyl]-9-(hexanoyloxy)thieno[4,3,2-de]pyrido[1,2-c]pyrimidine-3,5-dione]
[2]
  % INHIB OF PHENYLEPHRINE RESPONSE: 90%

## COc1ccccc1N1CCN(CCn2c(=O)c3csc4c3n(c2=O)CCC4OC(=O)C(C)C)CC1 (centres unmarked) [Example 33, 3,4,5,7,8,9-Hexahydro-9-(2-methylpropanoyloxy)-4-[2-[4-(2-methoxyphenyl)piperazin-1-yl]ethyl]thieno[4,3,2-de]pyrido[1,2-c]pyrimidine-3,5-dione]
[1]
  change in vivo at 5 mg/kg: -32%

## COc1ccccc1N1CCN(CCn2c(=O)c3csc4c3n(c2=O)CCC4OC(=O)C(C)(C)C)CC1 (centres unmarked) [Example 34, 3,4,5,7,8,9-Hexahydro-4-[2-[4-(2-methoxyphenyl)piperazin-1-yl]ethyl]-9-[(2,2-dimethyl)propanoyloxy]thieno[4,3,2-de]pyrido[1,2-c]pyrimidine-3,5-dione]
[1]
  change in vivo at 5 mg/kg: -26%

## COc1ccc(C(=O)OC2CCn3c(=O)n(CCN4CCN(c5ccccc5OC)CC4)c(=O)c4csc2c43)cc1 (centres unmarked) [Example 36, 3,4,5,7,8,9-Hexahydro-9-(4-methoxy)benzoyloxy-4-[2-[4-(2-methoxyphenyl)piperazin-1-yl]ethyl]thieno[4,3,2-de]pyrido[1,2-c]pyrimidine-3,5-dione]
[1]
  change in vivo at 5 mg/kg: -14%

## COc1ccccc1N1CCN(CCn2c(=O)c3csc4c3n(c2=O)CCC4OC(=O)c2ccc(Cl)cc2)CC1 (centres unmarked) [Example 37, 9-(4-Chlorobenzoyloxy)-3,4,5,7,8,9-hexahydro-4-[2-[4-(2-methoxyphenyl)piperazin-1-yl]ethyl]thieno[4,3,2-de]pyrido[1,2-c]pyrimidine-3,5-dione]
[1]
  change in vivo at 5 mg/kg: -30.2%

## COc1ccccc1N1CCN(CCn2c(=O)c3csc4c3n(c2=O)CCC4N)CC1 (centres unmarked) [Example 38, 9-Amino-3,4,5,7,8,9-hexahydro-4-[2-[4-(2-methoxyphenyl)piperazin-1-yl]ethyl]thieno[4,3,2-de]pyrido[1,2-c]pyrimidine-3,5-dione]
[1]; dose 2.5 mpk
  change in vivo at 2.5 mg/kg: -30.1%
[3]
  pIC50: 8.00
5HT2 receptor
  pIC50: 6.10
5HT1A receptor
  pIC50: 7.30
